Measured values from DBAASP.
≈ marks a conversion by molar mass, not a printed value.

Experiments:
Experiment in all cases: ≥ marks a high value that may be exact or a test limit, other limits are often not marked, values filed in µg/mL are converted to µM
[1] = test system: Bacillus megaterium ATCC 9885
[2] = test system: Candida albicans
[3] = test system: Clostridium perfringens
[4] = test system: Enterobacter cloacae ATCC 11775
[5] = test system: Escherichia coli 363 ATCC 11775
[6] = test system: Escherichia coli B
[7] = test system: Klebsiella pneumoniae
[8] = test system: Listeria monocytogenes
[9] = test system: Neisseria meningitidis
[10] = test system: Pseudomonas aeruginosa
[11] = test system: Saccharomyces cerevisiae
[12] = test system: Salmonella enterica subsp. enterica serovar Enteritidis
[13] = test system: Salmonella typhimurium CIP 6062
[14] = test system: Salmonella typhimurium
[15] = test system: Staphylococcus aureus ATCC 25923
[16] = test system: Staphylococcus haemolyticus
[17] = test system: Streptococcus pneumoniae
[18] = test system: Vibrio cholerae
[19] = test system: Escherichia coli O111
[20] = test system: Lacticaseibacillus casei ATCC 4646
[21] = test system: Streptococcus gordonii Challis DL1
[22] = test system: Streptococcus mitis ATCC 903
[23] = test system: Streptococcus mutans
[24] = test system: Streptococcus sanguinis NY101
[25] = test system: Veillonella atypica PK1910
[26] = test system: Acinetobacter baumannii Ab1408
[27] = test system: Acinetobacter baumannii Ab5753
[28] = test system: Acinetobacter baumannii Ab5755
[29] = test system: Acinetobacter baumannii NM124
[30] = test system: Acinetobacter baumannii NM35
[31] = test system: Acinetobacter baumannii NM8
[32] = test system: Candida albicans ATCC 90028
[33] = test system: Escherichia coli ATCC 25726
[34] = test system: Escherichia coli Ec513
[35] = test system: Klebsiella pneumoniae ATCC 700603
[36] = test system: Pseudomonas aeruginosa ATCC 27853
[37] = test system: Pseudomonas aeruginosa Pa1409
[38] = test system: Pseudomonas aeruginosa Pa4216
[39] = test system: Staphylococcus aureus Sa1390

MIC [1]	MIC [2]	MIC [3]	MIC [4]	MIC [5]	MIC [7]	MIC [8]	MIC [9]	MIC [10]	MIC [11]	MIC [12]	MIC [13]	MIC [15]	MIC [17]	MIC [20]	MIC [21]	MIC [22]	MIC [23]	SMILES	MIC [16]	MIC [18]	further results
≥ 50.2 µM	50 µM (≈ 113 µg/mL)	≥ 100 µM	12.5 µM (≈ 28.2 µg/mL)	6.25 µM (≈ 14.1 µg/mL)	6.25 µM (≈ 14.1 µg/mL)	≥ 50 µM	≥ 50 µM	3.1 µM (≈ 7.01 µg/mL)	≥ 100 µM	3.1 µM (≈ 7.01 µg/mL)	25.2 µM (≈ 57.1 µg/mL)	6.25 µM (≈ 14.1 µg/mL)	12.5 µM (≈ 28.2 µg/mL)	–	–	–	–	CC(C)C[C@H](NC(=O)[C@H](CC(C)C)NC(=O)[C@H](CCCCN)NC(=O)CNC(=O)[C@H](C)NC(=O)[C@@H](NC(=O)[C@H](CCCCN)NC(=O)[C@H](CC(C)C)NC(=O)[C@H](CC(C)C)NC(=O)[C@H](CC(=O)O)NC(=O)[C@@H](NC(=O)[C@@H](NC(=O)[C@@H](NC(=O)CN)C(C)C)C(C)C)[C@@H](C)O)[C@@H](C)O)C(=O)NCC(=O)N[C@@H](CC(N)=O)C(=O)N[C@@H](CC(C)C)C(=O)N[C@@H](Cc1ccccc1)C(=O)NCC(=O)N[C@@H](CO)C(=O)N[C@@H](CC(C)C)C(=O)N[C@@H](CO)C(=O)NCC(N)=O [GVVTDLLKTAGKLLGNLFGSLSG]	≥ 50 µM	25 µM (≈ 56.5 µg/mL)	MIC [6]: 12.5 µM (≈ 28.2 µg/mL); MIC [14]: 6.25 µM (≈ 14.1 µg/mL)
–	–	–	–	–	–	–	–	–	–	–	–	–	–	–	–	–	–	CC[C@H](C)[C@H](NC(=O)[C@H](CO)NC(=O)[C@@H]1CCCN1C(=O)[C@H](C)NC(=O)CNC(=O)[C@H](CC(C)C)NC(=O)[C@H](CCCCN)NC(=O)[C@H](CCCN=C(N)N)NC(=O)[C@H](CCSC)NC(=O)[C@H](CCCN=C(N)N)NC(=O)[C@H](CCCN=C(N)N)NC(=O)[C@H](CCC(N)=O)NC(=O)[C@H](Cc1c[nH]c2ccccc12)NC(=O)[C@H](CCC(N)=O)NC(=O)[C@@H](N)Cc1ccc(O)cc1)C(=O)N[C@H](C(=O)O)[C@@H](C)O [YQWQRRMRKLGAPSIT]	–	–	MIC [19]: ≥ 100 µM
3.15 µM (≈ 6.76 µg/mL)	12.5 µM (≈ 26.8 µg/mL)	25 µM (≈ 53.6 µg/mL)	12.6 µM (≈ 26.9 µg/mL)	6.25 µM (≈ 13.4 µg/mL)	3.1 µM (≈ 6.65 µg/mL)	12.5 µM (≈ 26.8 µg/mL)	25 µM (≈ 53.6 µg/mL)	1.5 µM (≈ 3.22 µg/mL)	12.5 µM (≈ 26.8 µg/mL)	1.5 µM (≈ 3.22 µg/mL)	12.6 µM (≈ 26.9 µg/mL)	6.25 µM (≈ 13.4 µg/mL)	3.1 µM (≈ 6.65 µg/mL)	–	–	–	–	CC[C@H](C)[C@H](NC(=O)[C@H](CC(C)C)NC(=O)[C@H](CO)NC(=O)[C@@H](NC(=O)[C@@H](NC(=O)[C@H](CC(C)C)NC(=O)CN)C(C)C)[C@@H](C)O)C(=O)N[C@@H](CCCCN)C(=O)NCC(=O)N[C@@H](C)C(=O)NCC(=O)N[C@@H](CCCCN)C(=O)N[C@@H](CC(C)C)C(=O)N[C@@H](CC(C)C)C(=O)NCC(=O)NCC(=O)N[C@@H](CC(C)C)C(=O)N[C@@H](Cc1ccccc1)C(=O)NCC(=O)N[C@@H](CO)C(=O)N[C@H](C(=O)N[C@H](C(=O)NCC(N)=O)[C@@H](C)O)C(C)C [GLVTSLIKGAGKLLGGLFGSVTG]	6.25 µM (≈ 13.4 µg/mL)	6.25 µM (≈ 13.4 µg/mL)	–
–	–	–	–	–	–	–	–	–	–	–	–	–	–	2.65 µM (≈ 8 µg/mL)	10.6 µM (≈ 32 µg/mL)	21.2 µM (≈ 64 µg/mL)	2.65 µM (≈ 8 µg/mL)	NCCCC[C@H](NC(=O)[C@H](Cc1c[nH]c2ccccc12)NC(=O)[C@H](Cc1ccccc1)NC(=O)[C@H](CCCCN)NC(=O)[C@H](CCCCN)NC(=O)[C@@H](N)Cc1ccccc1)C(=O)N[C@@H](Cc1c[nH]c2ccccc12)C(=O)N[C@@H](Cc1ccccc1)C(=O)N[C@@H](CCCN=C(N)N)C(=O)N[C@@H](CCCN=C(N)N)C(=O)N[C@@H](Cc1ccccc1)C(=O)NCC(=O)NCC(=O)NCC(=O)N[C@@H](CCCN=C(N)N)C(=O)N[C@@H](Cc1c[nH]c2ccccc12)C(=O)N[C@@H](CCCN=C(N)N)C(=O)N[C@@H](Cc1c[nH]c2ccccc12)C(=O)N[C@@H](CCCN=C(N)N)C(=O)N[C@@H](Cc1c[nH]c2ccccc12)C(=O)N[C@@H](Cc1ccccc1)C(N)=O [FKKFWKWFRRFGGGRWRWRWF]	–	–	MIC [24]: 5.3 µM (≈ 16 µg/mL); MIC [25]: 2.65 µM (≈ 8 µg/mL)
–	–	–	–	–	–	–	–	–	–	–	–	250 µM (≈ 566 µg/mL)	–	–	–	–	–	CC[C@H](C)[C@H](NC(=O)CNC(=O)[C@H](CCCCN)NC(=O)[C@@H](NC(=O)[C@H](CC(C)C)NC(=O)[C@H](CO)NC(=O)CNC(=O)[C@H](CC(C)C)NC(=O)CNC(=O)[C@H](C)NC(=O)[C@H](CCCCN)NC(=O)[C@H](Cc1ccccc1)NC(=O)[C@@H](NC(=O)[C@H](CCCCN)NC(=O)[C@H](CCCCN)NC(=O)[C@H](CC(C)C)NC(=O)CN)[C@@H](C)CC)C(C)C)C(=O)N[C@@H](C)C(=O)N[C@@H](C)C(=O)N[C@@H](Cc1cnc[nH]1)C(=O)N[C@H](C(=O)N[C@@H](C)C(=O)N[C@@H](CO)C(N)=O)C(C)C [GLKKIFKAGLGSLVKGIAAHVAS]	–	–	MIC [26]: 28.2 µM (≈ 64 µg/mL); MIC [27]: 28.2 µM (≈ 64 µg/mL); MIC [28]: 3.53 µM (≈ 8 µg/mL); MIC [29]: 1.25 µM (≈ 2.83 µg/mL); MIC [30]: 5 µM (≈ 11.3 µg/mL); MIC [31]: 2.5 µM (≈ 5.66 µg/mL); MIC [32]: 20 µM (≈ 45.3 µg/mL); MIC [33]: 5 µM (≈ 11.3 µg/mL); MIC [34]: 14.1 µM (≈ 32 µg/mL); MIC [35]: 12.5 µM (≈ 28.3 µg/mL); MIC [36]: 6 µM (≈ 13.6 µg/mL); MIC [37]: ≥ 56.5 µM; MIC [38]: 28.2 µM (≈ 64 µg/mL); MIC [39]: ≥ 56.5 µM
–	–	–	–	–	–	–	–	–	–	–	–	–	–	5.49 µM (≈ 16 µg/mL)	22 µM (≈ 64 µg/mL)	22 µM (≈ 64 µg/mL)	2.74 µM (≈ 8 µg/mL)	CC(C)C[C@H](NC(=O)[C@H](Cc1ccccc1)NC(=O)[C@H](CCCN=C(N)N)NC(=O)[C@H](CCCCN)NC(=O)[C@@H](N)CC(C)C)C(=O)N[C@@H](CCCCN)C(=O)N[C@@H](Cc1c[nH]c2ccccc12)C(=O)N[C@@H](Cc1ccccc1)C(=O)N[C@@H](CCCCN)C(=O)N[C@@H](CCCN=C(N)N)C(=O)N[C@@H](Cc1ccccc1)C(=O)NCC(=O)NCC(=O)NCC(=O)N[C@@H](CCCN=C(N)N)C(=O)N[C@@H](Cc1c[nH]c2ccccc12)C(=O)N[C@@H](CCCN=C(N)N)C(=O)N[C@@H](Cc1c[nH]c2ccccc12)C(=O)N[C@@H](CCCN=C(N)N)C(=O)N[C@@H](Cc1c[nH]c2ccccc12)C(=O)N[C@@H](Cc1ccccc1)C(N)=O [LKRFLKWFKRFGGGRWRWRWF]	–	–	MIC [24]: 5.49 µM (≈ 16 µg/mL); MIC [25]: 2.74 µM (≈ 8 µg/mL)
